Read-outs that look alike come from different tables or passages of the source.
Target: T1, RORc ligand binding domain (Homo sapiens, UniProt P51449)
T1 construct: host or cells: E. coli
T1 sequence (P51449 269-508 limits assumed): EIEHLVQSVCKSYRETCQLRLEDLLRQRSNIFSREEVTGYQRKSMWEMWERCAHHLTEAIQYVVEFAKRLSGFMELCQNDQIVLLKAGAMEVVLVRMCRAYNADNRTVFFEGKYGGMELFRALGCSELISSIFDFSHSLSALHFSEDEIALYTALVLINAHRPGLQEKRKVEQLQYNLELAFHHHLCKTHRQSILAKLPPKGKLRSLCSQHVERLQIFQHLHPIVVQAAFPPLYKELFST
Assay: In Vitro RORc Ligand Binding Assay (25-[3H]hydroxycholesterol radioligand filtration)

[1] = In Vitro RORc Ligand Binding Assay, Table 4, read-out: RORc IC50

IC50 [1] [nM]	SMILES	also measured
2040	C[C@H]1CCC(c2ccccc2)S(=O)(=O)N1Cc1ccc(C(=O)N2CCCC(CO)C2)cc1 (stereo partly drawn) [Example 281, (3-Hydroxymethyl-piperidin-1-yl)-[4-((3S)-methyl-1,1-dioxo-6-phenyl-[1,2]thiazinan-2-ylmethyl)-phenyl]-methanone]	
837	CC(=O)N1CCN(c2ccc(CN3[C@@H](C)CCC(c4ccccc4)S3(=O)=O)cn2)CC1 (single isomer, unassigned) [Example 42]	
16	CC(=O)N1CCN(c2ccc(CN3[C@H](C)CCCC(c4ccccc4)S3(=O)=O)c(F)c2)CC1 (single isomer, unassigned) [Example 321]	
25	C[C@H]1CCC(c2ccccc2)S(=O)(=O)N1Cc1ccc(NC2CCN(S(C)(=O)=O)CC2)cc1F (single isomer, unassigned) [Example 166]	
1100	C[C@H]1CCC(c2ccccc2)S(=O)(=O)N1Cc1ccc(N2CCC(c3nncn3C)CC2)cc1F (single isomer, unassigned) [Example 138]	
29	C[C@H]1CCC(c2ccccc2)S(=O)(=O)N1Cc1ccc(N2CCC(n3cnnc3)CC2)cc1F (single isomer, unassigned) [Example 150]	
94	CS(=O)(=O)N1CCC(Oc2ccc(CN3CCOCC(c4ccccc4)S3(=O)=O)c(F)c2)CC1 (single isomer, unassigned) [Example 56, 5-(2-fluoro-4-((1-(methylsulfonyl)piperidin-4-yl)oxy)benzyl)-3-phenyl-1,4,5-oxathiazepane 4,4-dioxide]	
2270	CC(=O)N1CC2CC2(NC(=O)c2ccc(CN3[C@@H](C)CCC(c4ccccc4)S3(=O)=O)cc2)C1 (stereo partly drawn) [Example 367, N-(3-Acetyl-3-aza-bicyclo[3.1.0]hex-1-yl)-4-((3S)-methyl-1,1-dioxo-6-phenyl-[1,2]thiazinan-2-ylmethyl)-benzamide]	
116	COc1cccc(C2CC[C@H](C)N(Cc3ccc(N4CCN(C(C)=O)CC4)cc3F)S2(=O)=O)c1 (single isomer, unassigned) [Example 191]	
54	CC(=O)N1CCN(c2ccc(CN3C[C@H](C)CC(c4ccccc4)S3(=O)=O)c(F)c2)CC1 (single isomer, unassigned) [Example 170]	
150	C[C@H]1CCC(c2ccccc2)S(=O)(=O)N1Cc1ccc(N2CCC(c3nnc[nH]3)CC2)cc1F (single isomer, unassigned) [Example 225]	
135	COc1ccccc1C1CC[C@H](C)N(Cc2ccc(N3CCN(C(C)=O)CC3)cc2F)S1(=O)=O (single isomer, unassigned) [Example 223]	
29	CC(=O)N1CCN(c2ccc(CN3[C@@H](C(C)C)CCC(c4ccccc4)S3(=O)=O)c(F)c2)CC1 (single isomer, unassigned) [Example 247]	
201	CC(=O)N1CCN(c2ccc(CN3[C@@H](C)CCC(c4ccccc4)S3(=O)=O)cc2C#N)CC1 (single isomer, unassigned) [Example 114]	
102	C[C@H]1CCC(c2ccccc2)S(=O)(=O)N1Cc1ccc(N2CCC(C(=O)O)CC2)cc1F (stereo partly drawn) [Example 120, 1-[3-Fluoro-4-((3S)-3-methyl-1,1-dioxo-6-phenyl-[1,2]thiazinan-2-ylmethyl)-phenyl]-piperidine-4-carboxylic acid]	
330	C[C@H]1CCC(c2ccccc2)S(=O)(=O)N1Cc1ccc(N2CCn3nccc3C2)cc1F (single isomer, unassigned) [Example 134]	
57	C[C@H]1CCC(c2ccccc2)S(=O)(=O)N1Cc1ccc(N2CCC(c3nnn[nH]3)CC2)cc1F (single isomer, unassigned) [Example 141]	
138	CO[C@@H](C)C(=O)N1CCN(c2ccc(CN3[C@@H](C)CCC(c4ccccc4)S3(=O)=O)c(F)c2)CC1 (single isomer, unassigned) [Example 77]	
61	C[C@H]1CCC(c2ccccc2)S(=O)(=O)N1Cc1ccc(N2CCN(C(=O)C3CC3)CC2)cc1 (single isomer, unassigned) [Example 61]	
200	CC(=O)N1CCN(c2ccc(CN3CC(C)(C)CC(c4ccccc4)S3(=O)=O)c(F)c2)CC1 (single isomer, unassigned) [Example 171, 1-{4-[4-(4,4-Dimethyl-1,1-dioxo-6-phenyl-[1,2]thiazinan-2-ylmethyl)-3-fluoro-phenyl]-piperazin-1-yl}-ethanone]	

IC50 [1] [nM]	SMILES	also measured
	CCOC(=O)N1CCC(C(=O)Nc2ccc(CN3[C@@H](C)CCC(c4ccccc4)S3(=O)=O)c(F)c2)CC1 (stereo partly drawn) [Example 456, 4-[3-Fluoro-4-((3S)-methyl-1,1-dioxo-6-phenyl-[1,2]thiazinan-2-ylmethyl)-phenylcarbamoyl]-piperidine-1-carboxylic acid ethyl ester]	IC50 (read-out: RORc IC50): 148 nM
911	C[C@H]1CCC(c2ccccc2)S(=O)(=O)N1Cc1ccc(C(=O)N2CCC[C@@H]2CO)cc1 (stereo partly drawn) [Example 291, (2-Hydroxymethyl-pyrrolidin-1-yl)-[4-((3S)-methyl-1,1-dioxo-6-phenyl-[1,2]thiazinan-2-ylmethyl)-phenyl]-methanone]	
4	CC[C@H]1CCC(c2ccccc2)S(=O)(=O)N1Cc1ccc(NC2CCN(S(C)(=O)=O)CC2)cc1F (single isomer, unassigned) [Example 240]	
18	C[C@H]1CCC(c2ccccc2)S(=O)(=O)N1Cc1ccc(NC2CCC(C#N)CC2)cc1F (stereo partly drawn) [Example 101, 4-[3-Fluoro-4-((3S)-3-methyl-1,1-dioxo-6-phenyl-[1,2]thiazinan-2-ylmethyl)-phenylamino]-cyclohexanecarbo-nitrile]	
466	C[C@H]1CCC(c2ccccc2)S(=O)(=O)N1Cc1ccc(N2CCN(C(=O)CCC#N)CC2)cc1F (single isomer, unassigned) [Example 73]	
660	C[C@H]1CCC(c2ccccc2)S(=O)(=O)N1Cc1ccc(C(=O)NCC2CCOCC2)cc1 (stereo partly drawn) [Example 292, 4-((3S)-Methyl-1,1-dioxo-6-phenyl-[1,2]thiazinan-2-ylmethyl)-N-(tetrahydro-pyran-4-ylmethyl)-benzamide]	
1720	CC(=O)N1CCN(c2ccc(CN3[C@@H](C)CCC(c4ccccc4)S3(=O)=O)c(F)c2)C[C@@H]1C(=O)N(C)C (stereo partly drawn) [Example 384, (R)-1-Acetyl-4-[3-fluoro-4-((3S)-methyl-1,1-dioxo-6-phenyl-[1,2]thiazinan-2-ylmethyl)-phenyl]-piperazine-2-carboxylic acid dimethylamide]	
24	CC(=O)N1CCN(c2ccc(CN3C(C)CCCC(c4ccccc4)S3(=O)=O)c(F)c2)CC1 (single isomer, unassigned) [Example 329, 1-{4-[3-Fluoro-4-(3-methyl-1,1-dioxo-7-phenyl-[1,2]thiazepan-2-ylmethyl)-phenyl]-piperazin-1-yl}-ethanone]	
592	O=C(CO)N1CCN(c2ccc(CN3CCCCC(c4ccccc4)S3(=O)=O)c(F)c2)CC1 (single isomer, unassigned) [Example 313, 1-{4-[4-(1,1-Dioxo-7-phenyl-[1,2]thiazepan-2-ylmethyl)-3-fluoro-phenyl]-piperazin-1-yl}-2-hydroxy-ethanone]	
115	CC(=O)N1CCN(c2ccc(CN3[C@@H](C)CCC(c4ccccc4)S3(=O)=O)cc2Cl)CC1 (single isomer, unassigned) [Example 164]	
20	C[C@H]1CCC(c2ccccc2)S(=O)(=O)N1Cc1ccc(N2CC(C3CCOCC3)C2)cc1F (single isomer, unassigned) [Example 106]	
11	CC(=O)N1CCN(c2ccc(CN3CCCCC(c4ccccc4)S3(=O)=O)c(F)c2)CC1 (single isomer, unassigned) [Example 15, 1-{4-[4-(1,1-Dioxo-7-phenyl-[1,2]thiazepan-2-ylmethyl)-3-fluoro-phenyl]-piperazin-1-yl}-ethanone]	
3010	C[C@H]1CCC(c2ccccc2)S(=O)(=O)N1Cc1ccc(C(=O)N2CCC3(COC3)C2)cc1 (stereo partly drawn) [Example 354, [4-((3S)-Methyl-1,1-dioxo-6-phenyl-[1,2]thiazinan-2-ylmethyl)-phenyl]-(2-oxa-6-aza-spiro[3.4]oct-6-yl)-methanone]	
15	C[C@H]1CCC(c2ccccc2)S(=O)(=O)N1Cc1ccc(N2CCN(C(=O)C3CC3)CC2)cc1 (single isomer, unassigned) [Example 60]	
	O=S1(=O)[C@@H](c2ccccc2)CCC2(CC2)N1Cc1ccc(N2CCC(n3cnnc3)CC2)cc1F [Example 415, (R)-4-[2-Fluoro-4-(4-[1,2,4]triazol-4-yl-piperidin-1-yl)-benzyl]-6-phenyl-5-thia-4-aza-spiro[2.5]octane 5,5-dioxide]	IC50 (RORc IC50): 37 nM
2430	C[C@H]1CCC(c2ccccc2)S(=O)(=O)N1Cc1ccc(C(=O)N2CCN(C)C(=O)C2)cc1 (stereo partly drawn) [Example 363, 1-Methyl-4-[4-((3S)-methyl-1,1-dioxo-6-phenyl-[1,2]thiazinan-2-ylmethyl)-benzoyl]-piperazin-2-one]	
75	C[C@H]1CCC(c2ccccc2)S(=O)(=O)N1Cc1ccc(N2CCC(n3cnnc3)CC2)cc1 (single isomer, unassigned) [Example 213]	
6	C[C@@H]1CCC(c2ccccc2)S(=O)(=O)N1Cc1ccc(OC2CCN(S(C)(=O)=O)CC2)cc1F (stereo partly drawn) [Example 53, 2-(2-fluoro-4-((1-(methylsulfonyl)piperidin-4-yl)oxy)benzyl)-(3R)-3-methyl-6-phenyl-1,2-thiazinane 1,1-dioxide]	
3	C[C@@H]1CC(c2ccccc2)S(=O)(=O)N(Cc2ccc(NC3CCN(S(C)(=O)=O)CC3)cc2F)C1 (stereo partly drawn) [Example 227, [3-Fluoro-4-((4R)-methyl-1,1-dioxo-6-phenyl-[1,2]thiazinan-2-ylmethyl)-phenyl]-(1-methanesulfonyl-piperidin-4-yl)-amine]	
55	C[C@H]1CCC(c2ccccc2)S(=O)(=O)N1Cc1ccc(N2CCC(c3cc(O)no3)CC2)cc1F (single isomer, unassigned) [Example 153]	
